Results taken from ChEMBL document CHEMBL1130862, “Synthesis and acetylcholinesterase inhibitory activity of (+/-)-14-fluorohuperzine A” (Bioorg Med Chem Lett, 1998).

Target: T1, Acetylcholinesterase (Rattus norvegicus, UniProt P37136)
T1 sequence (P37136 whole entry): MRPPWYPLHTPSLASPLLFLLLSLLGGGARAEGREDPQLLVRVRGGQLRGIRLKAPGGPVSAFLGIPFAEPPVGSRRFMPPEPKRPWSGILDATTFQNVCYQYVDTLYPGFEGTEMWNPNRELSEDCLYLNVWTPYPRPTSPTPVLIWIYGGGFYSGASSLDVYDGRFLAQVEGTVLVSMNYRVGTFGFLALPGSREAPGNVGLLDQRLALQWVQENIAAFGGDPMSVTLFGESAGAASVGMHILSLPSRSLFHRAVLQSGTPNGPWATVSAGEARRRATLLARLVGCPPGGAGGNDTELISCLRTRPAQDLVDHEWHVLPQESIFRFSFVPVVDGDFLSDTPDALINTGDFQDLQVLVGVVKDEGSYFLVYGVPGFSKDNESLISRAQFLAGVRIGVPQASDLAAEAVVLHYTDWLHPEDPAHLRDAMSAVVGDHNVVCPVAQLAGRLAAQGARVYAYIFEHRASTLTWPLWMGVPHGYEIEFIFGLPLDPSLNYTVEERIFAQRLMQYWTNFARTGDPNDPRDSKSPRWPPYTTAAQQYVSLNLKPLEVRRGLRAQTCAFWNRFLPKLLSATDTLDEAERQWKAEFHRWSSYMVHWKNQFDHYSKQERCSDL
Assay: In vitro inhibitory activity against Acetylcholinesterase (AChE) using rat brain hippocampal crude homogenates.
Format: tissue-based, Hippocampus

CC1=CC2Cc3nc(O)ccc3C(N)(C1)/C2=C/CF (stereo unspecified)
IC50: 10 µM
